Measurements taken from patent US20090191177A1, “Enantiomerically Pure (-) 2-[1-(7-methyl-2-(morpholin-4-yl)-4-oxo-4H-pyrido[1,2-A]pyrimidin-9-yl)ethylamino]benzoic Acid, Its Use In Medical Therapy, And A Pharmaceutical Composition Comprising It - 026” (priority 2008, published 2009).

Tested on: washed platelets
Experiment: Washed Platelet Aggregation (WPA), CD9 antibody-induced
Assay type: cell-based
Conditions: washed platelets from healthy volunteers, aggregation induced by mouse anti-human CD9 antibody
Protocol: Blood was collected from healthy volunteers by venipuncture using a Venflon needle 1.5*45 mm (17 GA, 1.77 IN). The first 2 ml of blood was discarded prior to collecting aliquotes into tubes containing acid citrate dextrose (ACD). One volume of ACD is required for six volumes of blood.
The anticoagulated blood was centrifuged for 15 min at 240×g to obtain platelet rich plasma (PRP). PRP was transferred to a new tube and centrifuged for 15 min at 2200×g. The supernatant was discarded and the platelet pellet re-suspended to […] in Tyrodes buffer (TB) containing 1 μM hirudin and 0.02 U/mL apyrase. The platelet suspension was left to rest at room temperature for 30 min. Just prior to time for assay, CaCl2 was added to a final concentration of 2 mM. The Compound, or wortmannin, was dissolved in DMSO and added to a 96 well plate prior to the addition of the washed platelet suspension. The platelet suspension was preincubated with inhibitor for 5 min. Light absorption at 650 nm was recorded before and after a 5 min plate shake and referred to as recording 0 (R0) and R1. A mouse anti-human CD9 antibody was added (at a donor specific concentration) to each well prior to next 10 min plate shake and light absorption recording; R2.
A concentration response for CD9 antibody-induced aggregation in the absence or presence of 1 μM wortmannin (complete PI3K inhibition) was performed in each washed platelet suspension prior to testing of the Compound. The CD9 antibody concentration with the largest dependence of PI3K inhibition was chosen for the test.
Light absorbance in wells with TB were subtracted from all readings before percent aggregation was calculated according the formula: [(R1−R2)/R1]×100=% aggregation. Spontaneous aggregation or pro-aggregatory effect of the inhibitor was evaluated by the same formula, [(R0−R1)/R0]×100=% aggregation.

Cc1cc(C(C)Nc2ccccc2C(=O)O)c2nc(N3CCOCC3)cc(=O)n2c1 (racemic) [WO2004016607, 2-[1-(7-Methyl-2-(morpholin-4-yl)-4-oxo-4H-pyrido[1,2-α]pyrimidin-9-yl)ethylamino]benzoic acid, reference compound]
IC50 (Homo sapiens, Platelet): 10 nM

Cc1cc(C(C)Nc2ccccc2C(=O)O)c2nc(N3CCOCC3)cc(=O)n2c1 (single isomer, unassigned; (+)) [Ex. 2, (+) 2-[1-(7-Methyl-2-(morpholin-4-yl)-4-oxo-4H-pyrido[1,2-a]pyrimidin-9-yl)ethylamino]benzoic acid]
IC50: 1650 nM

Cc1cc(C(C)Nc2ccccc2C(=O)O)c2nc(N3CCOCC3)cc(=O)n2c1 (single isomer, unassigned; (-)) [Ex. 1, (−) 2-[1-(7-Methyl-2-(morpholin-4-yl)-4-oxo-4H-pyrido[1,2-a]pyrimidin-9-yl)ethylamino]benzoic acid]
IC50: 6 nM
